Test results published in patent US4250259A, “Microbiological production of ketones from C3 -C6 secondary alcohols” (priority 1979, dated 1981).
Where two headings read alike, the source gives them in different places.

Columns and labels:
[1] = test system: purified secondary alcohol dehydrogenase (SADH); assay: substrate specificity and Michaelis constants of purified SADH; type: biochemical, Pseudomonas sp. ATCC 21439
[2] = test system: purified secondary alcohol dehydrogenase; assay: substrate specificity, electron acceptor and stoichiometry of purified yeast SADH; settings: for oxidation by the purified yeast secondary alcohol dehydrogenase: examined spectrophotometrically
[3] = test system: cell suspensions of C1-utilizers; assay: studies on production of 2-butanone from 2-butanol by cell suspensions of the strains tested; type: cell-based; settings: for inhibition of production of 2-butanone from 2-butanol by cell suspensions: strains tested
Source text: The following summarizes tests conducted on the optimal conditions for the production of methyl ketones from C3 -C6 sec. alcohols.
The substrate specificity for the oxidation of C3 -C6 secondary alcohols by the strains of C1 -utilizers was studied.

[4] = test system: purified secondary alcohol dehydrogenase (SADH); assay: inhibition of purified SADH by metal-chelating agents, thioreagents, metals; type: biochemical, Pseudomonas sp. ATCC 21439
Experimental: Secondary alcohol dehydrogenase (SADH) from an obligate methanol utilizer, Pseudomonas sp. ATCC 21439 was purified as follows. […] 0.05 M sodium phosphate buffer, pH 7.0 with 0.5 mM dithiothretol (buffer A) and were disrupted sonically (5×1 min.). The crude extract was separated by centrifugation. The crude extract was heat-treated at 50° C. in a water bath for 10 minutes. The resulting precipitate was removed by centrifugation. To the supernatant solution, 25 ml of protamine sulfate solution (2% solution in 0.1 M Tris base) was added dropwise with continuous stirring. After standing for 30 minutes, the extract was centrifuged. The supernatant solution was fractionated with solid ammonium sulfate. […] This DEAE-cellulose eluate was concentrated by ammonium sulfate fractionation. Material precipitating between 30 and 50% ammonium sulfate saturation was collected by centrifugation and dialyzed overnight against A. This fraction was further washed and filtered through an Amicon unit with XM 50 membrane. The concentrated fraction (6 ml) inside the Amicon unit was applied to an Affi-Gel Blue column (0.8 cm×18 cm) which had been equilibrated with buffer A for affinity chromatography. The column was washed overnight with buffer A (0.18 ml./min.) and then was eluted with buffer A containing 5 mM NAD. Each 1 ml. fraction was collected.
The purified secondary alcohol dehydrogenase enzyme (SADH) may be used directly for converting C3 -C6 secondary alcohols to the corresponding methyl ketones by the procedures described above; however, a source of NAD^+ must be added to the reaction medium. One can determine the NAD-linked secondary alcohol dehydrogenase activity with a fluorescence spectrophotometer (Perkin Elmer, Model MPF 44A) by following the formation of reduced NAD (Ex 340 nm, Em 460 nm). The assay system (3 ml.) will typically contain: sodium phosphate buffer pH 7.0, 150 μmol; NAD 1.0 μmol; a given amount of enzyme preparation; and 20 μmol secondary alcohol. The reaction is started by the addition of secondary alcohol. One unit of SADH enzyme activity represents the reduction of one nmole NAD per minute.
The effect of metal-chelating agents and thioreagents on the activity of the purified SADH enzyme were studied. […] The possibility of ethanol or n-propanol as an inhibitor was studied.

[5] = test system: cell-free particulate fractions of methane-grown methylotrophs; assay: inhibitors and electron donors of n-alkane conversion to sec. alcohols by cell-free particulate fractions; type: biochemical
Source text: The conditions for preparing the cell suspensions or the cell-free particulate fractions from methane-grown methylotroph microorganisms is the same as described above.

[6] = test system: cell-free SADH system; assay: cofactor requirement of the cell-free SADH systems; type: biochemical; settings: cell-free systems tested
Experimental: To prepare the cell-free secondary alcohol dehydrogenase (SADH) system, the washed cells were disrupted with a Wave Energy Ultrasonic Oscillator, Model W201 (Wave Energy System, Inc., Newtown, Pa.) and centrifuged at 20,000×g. for 30 minutes. […] The enzyme activity was measured with a fluorescence spectrophotometer (Perkin Elmer, Model MPF 44A) by following the formation of reduced NAD (EX 340 nm, Em 460 nm). The formation of reduced NAD was also followed with an absorption spectrophotometer at 340 nm. The assay system (3 ml.) contained: potassium phosphate buffer pH 7.0; 150 μmol.; NAD 1 μmol.; a given amount of enzyme preparation; and secondary alcohol 10 μmol. The reaction was started by the addition of substrate. One unit of enzyme activity represents the reduction of one μmole NAD per minute. Protein concentrations were determined by the Lowry method (J. Biol. Chem., 193: 255-275 (1951)).

[7] = test system: Methylococcus capsulatus CRL M1 NRRL B-11,219; assay: conversion of n-alkanes to oxidation products by cell suspensions (Table XVIII); type: cell-based; settings: methane-grown cell suspension, pH 7.0
Experimental: (§1) ^(a) Cell-suspensions of methanegrown methylotroph microorganisms
(§2) indicated in 0.15 M phosphate buffer, pH 7.0 incubated in the alkanes as
(§3) indicated at 3° C. The oxidation products were determined by g.l.c

[8] = test system: Methylosinus trichosporium OB3b NRRL B-11,196; assay: as above; type: cell-based; settings: methane-grown cell suspension, pH 7.0
Experimental: as §1, §2, §3

[9] = each inhibitor at a final concentration of 1 mM, measured spectrofluorometrically

For `CC(O)C(C)O` (stereo not drawn) [butane 2,3-diol], the “oxidation by purified SADH” value [1] was “lower rate”.
In the case of `CCC(O)CO` (stereo not drawn) [butane 1,2-diol], the “oxidation by purified SADH” value [1] is reported as “not oxidized” and the “oxidation by the purified yeast secondary alcohol dehydrogenase” value [2] is reported as “not oxidized”.
For `O=C(O)CCC(=O)O` [succinic acid], the “oxidation by purified SADH” value [1] was “not oxidized”.
With `CCCCCC(C)O` (stereo not drawn) [2-heptanol] the “rate of oxidation of secondary alcohols by strains of C1-utilizers” value ([3]; cell suspensions) was “much slower rate” and the “oxidation by the purified yeast secondary alcohol dehydrogenase” value [2] was “not oxidized”.
`[Ni+2]` [nickel] was tested, and the “% inhibition of SADH activity” value [4, 9] was 20%.
For `CCCCCCC(C)O` (stereo not drawn) [2-octanol], the “oxidation by the purified yeast secondary alcohol dehydrogenase” value [2] was “not oxidized”.
For `[Cu+2]` [cupric], the “% inhibition of SADH activity” value [4, 9] was 25%.
`CCCCCO` [pentan-1-ol] was tested, and the “oxidation by the purified yeast secondary alcohol dehydrogenase” value [2] was “not oxidized”.
In the case of `Oc1cccc2cccnc12` [8-hydroxyquinoline], the “inhibition of conversion of n-alkanes to sec. alcohols (words)” value (shortened to “inhibition of conversion of n-alkanes”) [5] is reported as “inhibited”.
For `O=C(O)CI` [iodoacetic acid], the “% inhibition of SADH activity” value [4] was 0% and the “inhibition of SADH activity” value [4] was “not inhibited”.
In the case of `NC(=O)c1ccc[n+]([C@@H]2O[C@H](COP(=O)(O)OP(=O)(O)OC[C@H]3O[C@@H](n4cnc5c(N)ncnc54)[C@H](OP(=O)(O)O)[C@@H]3O)[C@@H](O)[C@H]2O)c1` [NADP, reference compound], the “effectiveness as cofactor for oxidation of 2-butanol / C3-C6 secondary alcohols” value [6] is reported as “not effective” and the “ability to act as electron acceptor/carrier for the purified enzyme” value [2] is reported as “could not act as electron carrier”.
`[Mn+2]` [Mn^++] was tested, and the “% inhibition of SADH activity” value [4, 9] was 0%.
`CCO` [ethanol] was tested, and the “inhibition of SADH activity” value [4] was “did not inhibit” and the “oxidation by the purified yeast secondary alcohol dehydrogenase” value [2] was “not oxidized”.
`[N-]=[N+]=[N-]` [Sodium azide] was tested, and the “% inhibition of SADH activity” value [4, 9] was 10%.
For `Oc1ccccc1` [phenol], the “oxidation by purified SADH” value [1] was “not oxidized”.
With `C[n+]1c2ccccc2nc2ccccc21` [phenazine methosulfate, reference compound] the “effectiveness as cofactor for oxidation of 2-butanol / C3-C6 secondary alcohols” value [6] was “not effective” and the “ability to act as electron acceptor/carrier for the purified enzyme” value [2] was “could not act as electron carrier”.
For `CC=O` [acetaldehyde], the “oxidation by purified SADH” value [1] was “lower rate”.
`NC(N)=S` [Thiourea] was tested, and the “inhibition of production of 2-butanone from 2-butanol by cell suspensions” value [3] was “not inhibited”, the “inhibition of SADH activity” value [4] was “not inhibited” and the “% inhibition of SADH activity” value [4, 9] was 0%. For the same compound, the “inhibition of conversion of n-alkanes” value [5] was “inhibited”.
`[Mg+2]` [Mg^++] was tested, and the “% inhibition of SADH activity” value [4, 9] was 0%.
For `NNC(N)=S` [thiosemicarbazide], the “inhibition of conversion of n-alkanes” value [5] was “inhibited”.
For `OC1CCCCC1` [cyclohexanol], the “oxidation by purified SADH” value [1] was “lower rate”.
For `CC` [Ethane], the “Conversion Rate, product Ethanol” value [7] was 2.0 μmoles/hr./mg./protein and the “Conversion Rate, product Ethanol” value [8] was 1.3 μmoles/hr./mg./protein.
`O=C1C(Cl)=CC(=Nc2ccc(O)cc2)C=C1Cl` [dichlorophenol indophenol, 2,6-dichlorophenol indophenol, reference compound] was tested, and the “effectiveness as cofactor for oxidation of 2-butanol / C3-C6 secondary alcohols” value [6] was “not effective” and the “ability to act as electron acceptor/carrier for the purified enzyme” value [2] was “could not act as electron carrier”.
`c1ccc(-c2ccccn2)nc1` [α,α-bipyridyl] was tested, and the “inhibition of production of 2-butanone from 2-butanol by cell suspensions” value [3] was “inhibited”, the “% inhibition of SADH activity” value [4, 9] was 70% and the “inhibition of conversion of n-alkanes” value [5] was “inhibited”.
For `[Fe+2]` [ferrous], the “% inhibition of SADH activity” value [4, 9] was 50%.
With `C=CC` [propylene] the “inhibition of conversion of n-alkanes” value [5] was “inhibited” and the “inhibition of conversion of n-alkanes” value ([5]; listed as Propylene) was “inhibit”.
In the case of `Cc1cc2nc3c(=O)[nH]c(=O)nc-3n(C[C@H](O)[C@H](O)[C@H](O)COP(=O)(O)OP(=O)(O)OC[C@H]3O[C@@H](n4cnc5c(N)ncnc54)[C@H](O)[C@@H]3O)c2cc1C` [FAD, flavin adenine dinucleotide, reference compound], the “effectiveness as cofactor for oxidation of 2-butanol / C3-C6 secondary alcohols” value [6] is reported as “not effective” and the “ability to act as electron acceptor/carrier for the purified enzyme” value [2] is reported as “could not act as electron carrier”.
With `CC(O)CO` (stereo not drawn) [1,2-propandiol] the “oxidation by the purified yeast secondary alcohol dehydrogenase” value [2] was “not oxidized”.
`[Fe+3]` [ferric] was tested, and the “% inhibition of SADH activity” value [4, 9] was 35%.
With `CC(C)CO` [isobutanol] the “oxidation by purified SADH” value [1] was “not oxidized”.
In the case of `CC(O)CCO` (stereo not drawn) [butane 1,3-diol], the “oxidation by purified SADH” value [1] is reported as “lower rate” and the “oxidation by the purified yeast secondary alcohol dehydrogenase” value [2] is reported as “not oxidized”.
`NC(=O)C1=CN([C@@H]2O[C@H](COP(=O)(O)OP(=O)(O)OC[C@H]3O[C@@H](n4cnc5c(N)ncnc54)[C@H](OP(=O)(O)O)[C@@H]3O)[C@@H](O)[C@H]2O)C=CC1` [NAD(P)H] was tested, and the “effectiveness as cofactor for oxidation of 2-butanol / C3-C6 secondary alcohols” value [6] was “not effective”.
For `C` [Methane], the “Conversion Rate, product Methanol” value ([7]; […] phosphate buffer) was 2.5 μmoles/hr./mg./protein and the “Conversion Rate, product Methanol” value ([8]; […] phosphate buffer) was 1.5 μmoles/hr./mg./protein.
With `CCCO` [n-propanol] the “inhibition of SADH activity” value [4] was “did not inhibit” and the “oxidation by the purified yeast secondary alcohol dehydrogenase” value [2] was “not oxidized”.
With `O=C(O)c1cc(SSc2ccc([N+](=O)[O-])c(C(=O)O)c2)ccc1[N+](=O)[O-]` [5,5'-dithiobis(2-nitrobenzoic acid)] the “inhibition of SADH activity” value [4] was “inhibited” and the “% inhibition of SADH activity” value [4, 9] was 100%.
In the case of `[Co+2]` [Co^++], the “% inhibition of SADH activity” value [4, 9] is reported as 0%.
`O=Cc1ccccc1` [benzaldehyde] was tested, and the “oxidation by purified SADH” value [1] was “not oxidized”.
For `CCC=O` [ropanal], the “oxidation by purified SADH” value [1] was “lower rate” and the “relative percent rate of oxidation by SADH” value ([1]; 2-butanol = 100%) was 2%.
With `NC(=O)C1=CN([C@@H]2O[C@H](COP(=O)(O)OP(=O)(O)OC[C@H]3O[C@@H](n4cnc5c(N)ncnc54)[C@H](O)[C@@H]3O)[C@@H](O)[C@H]2O)C=CC1` [NADH, reduced nicotinamide adenine dinucleotide] the “use as electron donor for hydroxylation of n-alkanes” value [5] was “requires”.
In the case of `[Zn+2]` [Zn^++], the “stimulation of SADH activity” value ([4]; addition of exogenous zinc) is reported as “did not stimulate” and the “% inhibition of SADH activity” value [4, 9] is reported as 0%.
`O=C(O)CN(CCN(CC(=O)O)CC(=O)O)CC(=O)O` [EDTA] was tested, and the “% inhibition of SADH activity” value [4] was 63%.
With `CCCCO` [butan-1-ol] the “oxidation by the purified yeast secondary alcohol dehydrogenase” value [2] was “not oxidized”.
`CCN1C(=O)C=CC1=O` [N-ethylmalemide, N-ethylmaleimide] was tested, and the “inhibition of SADH activity” value [4] was “not inhibited” and the “% inhibition of SADH activity” value [4, 9] was 6%.
In the case of `CO` [methanol], the “oxidation by the purified yeast secondary alcohol dehydrogenase” value [2] is reported as “not oxidized”.
With cytochrome c [reference compound] the “ability to act as electron acceptor/carrier for the purified enzyme” value [2] was “could not act as electron carrier”.
For `NC(=O)C1=CN([C@@H]2O[C@H](COP(=O)(O)OP(=O)(O)OC[C@H]3O[C@@H](n4cnc5c(N)ncnc54)[C@H](OP(=O)(O)O)[C@@H]3O)[C@@H](O)[C@H]2O)C=CC1` [NADPH, reduced nicotinamide adenine dinucleotide phosphate], the “use as electron donor for hydroxylation of n-alkanes” value [5] was “could also be utilized as an electron donor”.
In the case of `C=O` [formaldehyde], the “oxidation by purified SADH” value [1] is reported as “not oxidized”.
